In patent publication US8858988B2, “Compositions comprising extracts of Boswellia, tea tree, aloe and lavender oil and methods of treating wounds, burns and skin injuries therewith” (CuraPhyte Technologies Inc., priority 2009, dated 2014):
Marks after values point to notes of the source that are not given here.

Tested on: mouse cutaneous injury model
Assay: Wound healing in mouse cutaneous injury model
Type: in vivo
Details: TOP
Method: Animal model: Groups of 8 ICR male mice weighing 22±2 g were used. Under ether anesthesia, the shoulder and back region of each animal was shaved. A sharp punch (ID 12 mm) was used to remove the skin including panniculus carnosus and adherent tissues. The wound area, traced onto clear plastic sheets on days 3, 5, 7, 9 and 11, were quantitated by use of an Image Analyzer (Life Science Resources VISTA, Version 30). Test compound and vehicle (20 μl, 1.5% carboxymethylcellulose in PBS) were applied topically immediately following injury and in single, two or three applications daily thereafter for a total of 10 consecutive days. The wound half-closure time (CT50) was determined and unpaired Student's t test was applied for comparison between treated and vehicle group at each measurement time point. Differences are considered statistical significance at P<0.05. CGS-21680 ((2-p-carboxyethyl)phenylamino-5′-N-carboxamidoadenosine) was used as a positive comparator. Test substance C-T-1001 (Ointment A: herbal active ingredients tea tree oil, boswellia resin, aloe vera gel and lavender oil) was evaluated for possible wound healing activity. The test substance was applied topically to the wound area once, twice, or three times daily for 10 consecutive days. Percent closure of the wound (%) was determined on days 3, 5, 7, 9 and 11 in order to generate the half closure time (CT50). One-way ANOVA followed by Dunnett's test was used to determine significant difference between the treated groups and vehicle control.

CCNC(=O)[C@H]1O[C@@H](n2cnc3c(N)nc(NCCc4ccc(CCC(=O)O)cc4)nc32)[C@H](O)[C@@H]1O [CGS-21680]
The Closure of Wound (%) Day 3 (10 μg/mouse × 10, Day 3, mean (X)): 42.4* %
The Closure of Wound (%) Day 5 (10 μg/mouse × 10, Day 5, mean (X)): 56.3* %
The Closure of Wound (%) Day 7 (10 μg/mouse × 10, Day 7, mean (X)): 66.8* %
The Closure of Wound (%) Day 9 (10 μg/mouse × 10, Day 9, mean (X)): 74.3* %
The Closure of Wound (%) Day 11 (10 μg/mouse × 10, Day 11, mean (X)): 81.7* %
CT50 (Days), wound half-closure time (10 μg/mouse × 10, mean (X)): 5.5* Days
